The values that follow come from PubChem BioAssay AID256 (DTP/NCI, 2004).

Values joined by “and” are separate entries in the source; they are usually repeats but may differ in a detail not shown here. Identical values can stand only once. Inconclusive results and toxic doses are left out.

The assay relates to CD2F1 mice, L1210 leukemia ip, survival T/C. In words: NCI In Vivo Anticancer Drug Screen. Data for tumor model L1210 Leukemia (intraperitoneal) in CD2F1 (CDF1) mice. As to conditions: higher = longer survival. The procedure, abridged:
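Vehicle-treated tumor-bearing mice served as controls (C) for compound-treated mice (T). Reported figure is T divided by C.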

Where [1] appears, read: endpoint: mean survival time, dose: 100.0 mg/kg/injection, schedule: Q04DX003 (ip), vehicle: saline with Tween-80.
[2] abbreviates: endpoint: mean survival time, dose: 200.0 mg/kg/injection, schedule: Q04DX003 (ip), vehicle: saline with Tween-80.
Setting [3] is: endpoint: mean survival time, dose: 400.0 mg/kg/injection, schedule: Q04DX003 (ip), vehicle: saline with Tween-80.

`CCO`: the T/C is 100 % of control (endpoint: mean survival time, dose: 50.0 mg/kg/injection, schedule: Q03HX024 (ip), vehicle: saline); 102 % of control (endpoint: mean survival time, dose: 100.0 mg/kg/injection, schedule: Q03HX024 (ip), vehicle: saline); 103 % of control (endpoint: mean survival time, dose: 125.0 mg/kg/injection, schedule: Q01DX009 (ip), vehicle: saline); 97 % of control (endpoint: mean survival time, dose: 200.0 mg/kg/injection, schedule: Q03HX024 (ip), vehicle: saline); 100 % of control (endpoint: mean survival time, dose: 250.0 mg/kg/injection, schedule: Q01DX009 (ip), vehicle: saline); 102 % of control (endpoint: mean survival time, dose: 400.0 mg/kg/injection, schedule: Q03HX024 (ip), vehicle: saline). The T/C was 109 % of control (endpoint: mean survival time, dose: 500.0 mg/kg/injection, schedule: Q01DX001 (ip), vehicle: saline); 105 % of control (endpoint: mean survival time, dose: 500.0 mg/kg/injection, schedule: Q01DX009 (ip), vehicle: saline); 108 % of control (endpoint: mean survival time, dose: 1000.0 mg/kg/injection, schedule: Q01DX001 (ip), vehicle: saline); 103 % of control (endpoint: mean survival time, dose: 1000.0 mg/kg/injection, schedule: Q01DX009 (ip), vehicle: saline); 103 % of control (endpoint: mean survival time, dose: 2000.0 mg/kg/injection, schedule: Q01DX001 (ip), vehicle: saline); 111 % of control (endpoint: mean survival time, dose: 4000.0 mg/kg/injection, schedule: Q01DX001 (ip), vehicle: saline).

Turning to `CC(=O)Nc1cc([N+](=O)[O-])cc([N+](=O)[O-])c1O`, the T/C is 101 % of control (endpoint: mean survival time, dose: 100.0 mg/kg/injection, schedule: Q01DX001 (ip), vehicle: saline with Tween-80) and 98 % of control (endpoint: mean survival time, dose: 200.0 mg/kg/injection, schedule: Q01DX001 (ip), vehicle: saline with Tween-80).

With `COc1ccc(C(=O)NNC(=O)c2ccc(OC)c(OC)c2)cc1OC`, the T/C runs as follows: (endpoint: mean survival time, dose: 12.5 mg/kg/injection, schedule: Q01DX009 (ip), vehicle: other) 92 % of control; (endpoint: mean survival time, dose: 25.0 mg/kg/injection, schedule: Q01DX009 (ip), vehicle: other) 93 % of control; (endpoint: mean survival time, dose: 50.0 mg/kg/injection, schedule: Q01DX009 (ip), vehicle: other) 92 % of control; (endpoint: mean survival time, dose: 100.0 mg/kg/injection, schedule: Q01DX009 (ip), vehicle: other) 108 % of control; (endpoint: mean survival time, dose: 200.0 mg/kg/injection, schedule: Q01DX009 (ip), vehicle: other) 107 % of control.

With `CC(=O)[O][Sb]([CH3])([CH3])([CH3])[O]C(C)=O`, the T/C reads like this: (endpoint: mean survival time, dose: 100.0 mg/kg/injection, schedule: Q04DX002 (ip), vehicle: saline with Tween-80) 110 % of control; (endpoint: mean survival time, dose: 200.0 mg/kg/injection, schedule: Q04DX002 (ip), vehicle: saline with Tween-80) 98 % of control; (endpoint: mean survival time, dose: 400.0 mg/kg/injection, schedule: Q04DX002 (ip), vehicle: saline with Tween-80) 103 % of control.

Regarding `NCc1ccncc1`, the T/C (endpoint: mean survival time, dose: 100.0 mg/kg/injection, schedule: Q04DX002 (ip), vehicle: saline) is 106 % of control; the T/C (endpoint: mean survival time, dose: 200.0 mg/kg/injection, schedule: Q04DX002 (ip), vehicle: saline) was 95 % of control; the T/C (endpoint: mean survival time, dose: 400.0 mg/kg/injection, schedule: Q04DX002 (ip), vehicle: saline) was 98 % of control.

On to `CCCCCC(C(O)C#N)C(O)(C(F)(F)F)C(F)(F)F` (stereo unspecified), for which the T/C is 96 % of control (endpoint: mean survival time, dose: 100.0 mg/kg/injection, schedule: Q04DX003 (ip), vehicle: Klucel (hydroxypropylcellulose) (HPC)); 96 % of control (endpoint: mean survival time, dose: 200.0 mg/kg/injection, schedule: Q04DX003 (ip), vehicle: Klucel (hydroxypropylcellulose) (HPC)); 90 % of control (endpoint: mean survival time, dose: 400.0 mg/kg/injection, schedule: Q04DX003 (ip), vehicle: Klucel (hydroxypropylcellulose) (HPC)).

In the case of `O=C1OC(=O)C2C3C=CC(C12)C1C2C(=O)OC(=O)C2C31` (stereo unspecified), the T/C is 91 % of control and 101 % of control under setting [1]; 94 % of control and 97 % of control under setting [2]; 123 % of control and 94 % of control under setting [3]; 110 % of control (endpoint: mean survival time, dose: 600.0 mg/kg/injection, schedule: Q04DX003 (ip), vehicle: saline with Tween-80).

As for `CCOC(=O)Nc1cc(NC(C)CCCN(CC)CC)c2ncc(-c3ccccc3)nc2n1` (stereo unspecified) (tested in a mixture with another compound), the T/C reads like this: (endpoint: mean survival time, dose: 25.0 mg/kg/injection, schedule: Q01DX009 (ip), vehicle: saline) 89 % of control; (endpoint: mean survival time, dose: 25.0 mg/kg/injection, schedule: Q04DX003 (ip), vehicle: saline) 98 % of control; (endpoint: mean survival time, dose: 50.0 mg/kg/injection, schedule: Q01DX009 (ip), vehicle: saline) 94 % of control; (endpoint: mean survival time, dose: 50.0 mg/kg/injection, schedule: Q04DX003 (ip), vehicle: saline) 98 % of control; (endpoint: mean survival time, dose: 100.0 mg/kg/injection, schedule: Q01DX009 (ip), vehicle: saline) 95 % of control; (endpoint: mean survival time, dose: 100.0 mg/kg/injection, schedule: Q04DX003 (ip), vehicle: saline) 108 % of control.

As to `CN(C)c1nc(N)nc(-c2ccncc2)n1`, the T/C is, setting by setting: (endpoint: mean survival time, dose: 12.0 mg/kg/injection, schedule: Q04DX002 (ip), vehicle: saline) 100 % of control; (endpoint: mean survival time, dose: 24.0 mg/kg/injection, schedule: Q04DX002 (ip), vehicle: saline) 96 % of control; (endpoint: mean survival time, dose: 48.0 mg/kg/injection, schedule: Q04DX002 (ip), vehicle: saline) 92 % of control.

Regarding `C=CCSc1ncnc2c1ncn2C1OC(CO)C(O)C1O` (stereo unspecified), the T/C (endpoint: mean survival time, dose: 88.0 mg/kg/injection, schedule: Q01DX009 (ip), vehicle: carboxymethylcellulose (CMC)) is 154 % of control and the T/C (endpoint: mean survival time, dose: 133.0 mg/kg/injection, schedule: Q01DX009 (ip), vehicle: carboxymethylcellulose (CMC)) is 158 % of control.

On to `CCCCNC(=S)NNC(=O)Cn1cnc2c1c(=O)n(C)c(=O)n2C`, for which the T/C was 101 % of control (endpoint: mean survival time, dose: 12.5 mg/kg/injection, schedule: Q01DX005 (ip), vehicle: distilled water + Tween-80); 101 % of control (endpoint: mean survival time, dose: 25.0 mg/kg/injection, schedule: Q01DX005 (ip), vehicle: distilled water + Tween-80); 97 % of control (endpoint: mean survival time, dose: 50.0 mg/kg/injection, schedule: Q01DX005 (ip), vehicle: distilled water + Tween-80); 97 % of control (endpoint: mean survival time, dose: 100.0 mg/kg/injection, schedule: Q01DX005 (ip), vehicle: distilled water + Tween-80); 101 % of control (endpoint: mean survival time, dose: 200.0 mg/kg/injection, schedule: Q01DX005 (ip), vehicle: distilled water + Tween-80).

`CC(=O)c1ccccc1OC(=O)c1ccccc1`: the T/C is, setting by setting: (endpoint: mean survival time, dose: 100.0 mg/kg/injection, schedule: Q01DX009 (ip), vehicle: saline with Tween-80) 100 % of control; under setting [1], 107 % of control; (endpoint: mean survival time, dose: 200.0 mg/kg/injection, schedule: Q01DX009 (ip), vehicle: saline with Tween-80) 91 % of control; under setting [2], 101 % of control; (endpoint: mean survival time, dose: 400.0 mg/kg/injection, schedule: Q01DX009 (ip), vehicle: saline with Tween-80) 93 % of control; under setting [3], 104 % of control.

Regarding `COC(=O)c1ccccc1-c1ccccc1C(=O)O`, the T/C was 97 % of control (endpoint: mean survival time, dose: 44.0 mg/kg/injection, schedule: Q01DX001 (ip), vehicle: other); 97 % of control (endpoint: mean survival time, dose: 66.0 mg/kg/injection, schedule: Q01DX001 (ip), vehicle: other); 103 % of control (endpoint: mean survival time, dose: 100.0 mg/kg/injection, schedule: Q01DX001 (ip), vehicle: other); 100 % of control (endpoint: mean survival time, dose: 150.0 mg/kg/injection, schedule: Q01DX001 (ip), vehicle: other).

Consider `CC(=O)ON(C(C)=O)c1ccc(C(N)=O)cc1`, for which the T/C is 103 % of control (endpoint: median survival time, dose: 25.0 mg/kg/injection, schedule: Q01DX009 (ip), vehicle: saline with Tween-80); 100 % of control (endpoint: median survival time, dose: 50.0 mg/kg/injection, schedule: Q01DX009 (ip), vehicle: saline with Tween-80); 101 % of control (endpoint: median survival time, dose: 100.0 mg/kg/injection, schedule: Q01DX009 (ip), vehicle: saline with Tween-80); 103 % of control (endpoint: median survival time, dose: 200.0 mg/kg/injection, schedule: Q01DX009 (ip), vehicle: saline with Tween-80); 108 % of control (endpoint: median survival time, dose: 400.0 mg/kg/injection, schedule: Q01DX009 (ip), vehicle: saline with Tween-80).

For the molecule `COC(=O)[C@@H]1c2cc3c(c(O)c2[C@@H](OC2OC(C)C(OC)C(C)(OC)C2OC)C[C@]1(C)O)C(=O)c1c(O)cc2c(c1C3=O)O[C@H]1O[C@]2(C)[C@H](O)[C@@H](N(C)C)[C@@H]1O` (stereo partly specified), the T/C runs as follows: (endpoint: mean survival time, dose: 0.25 mg/kg/injection, schedule: Q01DX009 (ip), vehicle: other) 120 % of control and 112 % of control; (endpoint: mean survival time, dose: 0.5 mg/kg/injection, schedule: Q01DX009 (ip), vehicle: other) 116 % of control and 108 % of control; (endpoint: mean survival time, dose: 1.0 mg/kg/injection, schedule: Q01DX009 (ip), vehicle: other) 93 % of control and 110 % of control.
